Source: patent publication US5318994A, “N-[2-(7-lower-alkoxynaphth-1-yl)ethyl]benzamides” (Adir et Compagnie, priority 1990, dated 1994)

Molecular target: melatonin receptors
Test: Test of binding to melatonin receptors
Experimental: Binding of compounds of the invention to melatonin receptors was carried out according to conventional techniques.

Q: How did the Kd turn out when `COc1ccc2[nH]cc(CCNC(C)=O)c2c1` [melatonin] was run?
A: 0.063 nM
